Counter-ions that a name gives are not always drawn. One block for each compound: values may come before it.
Legend:
[1] = test system: cultured human mast cells (CHMC); assay: CHMC low cell density ionomycin activation: tryptase assay; type: cell-based; settings: low cell density CHMC, read-out: LD Tryptase, CHMC, Iono, 3 pt
[2] = test system: cultured human mast cells (CHMC); assay: CHMC low cell density IgE activation: tryptase assay; type: cell-based; settings: low cell density CHMC, IgE activation
Procedure, shortened: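 Fluorogenic readout of tryptase released into the supernatant (30 min substrate incubation, room temperature) measures degranulation. Cells were plated at low density (1000–1500/well, varied by donor) and triggered with anti-IgE for 30 min at 37 °C.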

[3] = tryptase release, 3 point, read-out: LD Tryptase, CHMC, IgE, 3 pt
[4] = tryptase release, 8 point, read-out: LD Tryptase, CHMC, IgE, 8 pt
[5] = Homo sapiens, Mast cell, tryptase release, 3 point
[6] = Homo sapiens, Mast cell, tryptase release, 3 point, read-out: LD Tryptase, CHMC, IgE, 3 pt
[7] = Homo sapiens, Mast cell, tryptase, 3 pt
[8] = Homo sapiens, Mast cell, tryptase, 3 pt, read-out: LD Tryptase, CHMC, IgE, 3 pt
[9] = Homo sapiens, Mast cell, tryptase, 8 pt, read-out: LD Tryptase, CHMC, IgE, 8 pt
[10] = Homo sapiens, Mast cell, tryptase release, 3 pt
[11] = Homo sapiens, Mast cell, tryptase release, 3 pt, read-out: LD Tryptase, CHMC, IgE, 3 pt
[12] = Homo sapiens, Mast cell, tryptase release, 8 pt, read-out: LD Tryptase, CHMC, IgE, 8 pt

- IC50 ([1]; tryptase release, 3 point): > 10 µM
- IC50 [2, 3]: < 10 µM
- IC50 [2, 4]: < 10 µM
Compound: CNC(=O)Cn1ccc2ccc(Nc3ncc(F)c(Nc4ccc5c(c4)OCCO5)n3)cc21 [Compound 649, N4-(3,4-Ethylenedioxyphenyl)-5-fluoro-N2-[1-(N-methylamino)carbonylmethyleneindol-6-yl]-2,4-pyrimidinediamine]

- IC50 [1, 5]: > 10 µM
- IC50 [2, 6]: > 10 µM
Compound: COc1ccc(N(C)c2nc(Cl)ncc2F)cn1 [Compound 657]

- IC50 [1, 5]: > 10 µM
- IC50 [2, 6]: > 10 µM
Compound: CN(c1ccc(Cl)c(C(F)(F)F)c1)c1nc(Cl)ncc1F [Compound 658]

- IC50 [1, 5]: > 10 µM
- IC50 [2, 6]: > 10 µM
Compound: COc1cc(N(C)c2nc(Cl)ncc2F)ccc1Cl [Compound 659]

- IC50 [1, 5]: > 10 µM
- IC50 [2, 6]: > 10 µM
Compound: COc1ccc(N(C)c2nc(Cl)ncc2F)cc1Cl [Compound 660]

- IC50 ([1]; tryptase release, 3 point): > 10 µM
- IC50 [2, 3]: < 10 µM
- IC50 [2, 4]: < 10 µM
Compound: CNC(=O)Cn1ccc2ccc(Nc3ncc(F)c(Nc4ccc(OC(F)(F)F)c(Cl)c4)n3)cc21 [Compound 662, N4-(3-Chloro-4-trifluoromethoxyphenyl)-5-fluoro-N2-[1-(N-methylamino)carbonylmethyleneindol-6-yl]-2,4-pyrimidinediamine]

- IC50 ([1]; tryptase release, 3 point): > 10 µM
- IC50 [2, 3]: < 10 µM
Compound: CNC(=O)Cn1ccc2ccc(Nc3ncc(F)c(Nc4ccc(Cl)c(OC)c4)n3)cc21 [Compound 663, N4-(4-Chloro-3-methoxyphenyl)-5-fluoro-N2-[1-(N-methylamino)carbonylmethyleneindol-6-yl]-2,4-pyrimidinediamine]

- IC50 ([1]; tryptase release, 3 point): > 10 µM
- IC50 [2, 3]: < 10 µM
- IC50 [2, 4]: < 10 µM
Compound: CNC(=O)Cn1ccc2ccc(Nc3ncc(F)c(Nc4ccc(OC)c(Cl)c4)n3)cc21 [Compound 664, N4-(3-Chloro-4-methoxyphenyl)-5-fluoro-N2-[1-(N-methylamino)carbonylmethyleneindol-6-yl]-2,4-pyrimidinediamine]

- IC50 ([1]; tryptase release, 3 point): > 10 µM
- IC50 [2, 3]: < 10 µM
Compound: CNC(=O)Cn1ccc2ccc(Nc3ncc(F)c(Nc4ccc(C(=O)NC)c(Cl)c4)n3)cc21 [Compound 665, N4-[3-Chloro-4-(N-methylamino)carbonylphenyl]-5-fluoro-N2-[1-(N-methylamino)carbonylmethyleneindol-6-yl]-2,4-pyrimidinediamine]

- IC50 [1, 5]: > 10 µM
- IC50 [2, 6]: > 10 µM
Compound: COc1ccc(Nc2nc(Cl)ncc2F)cc1Cl [Compound 666]

- IC50 [1, 7]: > 10 µM
- IC50 [2, 8]: < 10 µM
- IC50 [2, 9]: < 10 µM
Compound: CCn1ncc2cc(Nc3ncc(F)c(Nc4ccc(OC)c(Cl)c4)n3)ccc21 [Compound 694]

- IC50 [1, 7]: > 10 µM
- IC50 [2, 8]: > 10 µM
Compound: CCn1ncc2cc(Nc3ncc(F)c(Nc4ccc(Cl)c(Cl)c4)n3)ccc21 [Compound 695, N4-(3,4-Dichlorophenyl)-N2-(1-ethylindazol-5-yl)-5-fluoro-2,4-pyrimidinediamine]

- IC50 [1, 7]: < 10 µM
- IC50 [2, 8]: < 10 µM
- IC50 [2, 9]: < 10 µM
Compound: CCn1ncc2cc(Nc3ncc(F)c(Nc4ccc5c(c4)NC(=O)C(C)(C)O5)n3)ccc21 [Compound 696, N4-(2,2-Dimethyl-3-oxo-4H-benz[1,4]oxazin-6-yl)-N2-(1-ethylindazol-5-yl)-5-fluoro-2,4-pyrimidinediamine]

- IC50 [1, 7]: > 10 µM
- IC50 [2, 8]: < 10 µM
- IC50 [2, 9]: < 10 µM
Compound: CCn1ncc2cc(Nc3ncc(F)c(Nc4ccc(F)c(OC)c4)n3)ccc21 [Compound 697, N2-(1-Ethylindazol-5-yl)-5-fluoro-N4-(4-fluoro-3-methoxyphenyl)-2,4-pyrimidinediamine]

- IC50 [1, 7]: > 10 µM
- IC50 [2, 8]: < 10 µM
- IC50 [2, 9]: < 10 µM
Compound: CCn1ncc2ccc(Nc3ncc(F)c(Nc4ccc(OC)c(Cl)c4)n3)cc21 [Compound 698, N4-(3-Chloro-4-methoxyphenyl)-N2-(1-ethylindazol-6-yl)-5-fluoro-2,4-pyrimidinediamine]

- IC50 [1, 7]: < 10 µM
- IC50 [2, 8]: < 10 µM
Compound: CCn1ncc2ccc(Nc3ncc(F)c(Nc4ccc(Cl)c(Cl)c4)n3)cc21 [Compound 699, N4-(3,4-Dichlorophenyl)-N2-(1-ethylindazol-6-yl)-5-fluoro-2,4-pyrimidinediamine]

- IC50 [1, 7]: < 10 µM
- IC50 [2, 8]: < 10 µM
- IC50 [2, 9]: < 10 µM
Compound: CCn1ncc2ccc(Nc3ncc(F)c(Nc4ccc5c(c4)NC(=O)C(C)(C)O5)n3)cc21 [Compound 700, N4-(2,2-Dimethyl-3-oxo-4H-benz[1,4]oxazin-6-yl)-N2-(1-ethylindazol-6-yl)-5-fluoro-2,4-pyrimidinediamine]

- IC50 [1, 7]: < 10 µM
- IC50 [2, 8]: < 10 µM
Compound: CCn1ncc2ccc(Nc3ncc(F)c(Nc4ccc(F)c(OC)c4)n3)cc21 [Compound 701, N2-(1-Ethylindazol-6-yl)-5-fluoro-N4-(4-fluoro-3-methoxyphenyl)-2,4-pyrimidinediamine]

- IC50 [1, 7]: < 10 µM
- IC50 [2, 9]: < 10 µM
Compound: CCCn1ncc2ccc(Nc3ncc(F)c(Nc4ccc(OC)c(Cl)c4)n3)cc21 [Compound 706, N4-(3-Chloro-4-methoxyphenyl)-5-fluoro-N2-(1-n-propylindazol-6-yl)-2,4-pyrimidinediamine]

- IC50 [1, 7]: > 10 µM
- IC50 [2, 8]: < 10 µM
- IC50 [2, 9]: < 10 µM
Compound: CCn1cc2ccc(Nc3ncc(F)c(Nc4ccc5c(c4)NC(=O)C(C)(C)O5)n3)cc2n1 [Compound 761, N4-(2,2-Dimethyl-3-oxo-4H-benz[1,4]oxazin-6-yl)-N2-(2-ethylindazol-6-yl)-5-fluoro-2,4-pyrimidinediamine]

Compound: Cn1ncc2ccc(Nc3ncc(F)c(Nc4ccc5c(c4)NC(=O)C(C)(C)O5)n3)cc21 [Compound 766, N4-(2,2-Dimethyl-3-oxo-4H-benz[1,4]oxazin-6-yl)-5-fluoro-N2-(1-methylindazol-6-yl)-2,4-pyrimidinediamine DL-Camphor-1-sulfonic Acid Salt]
- IC50 ([1]; tryptase, 3 pt): > 10 µM
- IC50 ([2]; tryptase, 3 pt, read-out: LD Tryptase, CHMC, IgE, 3 pt): < 10 µM
- IC50 ([2]; tryptase, 8 pt, read-out: LD Tryptase, CHMC, IgE, 8 pt): < 10 µM

Compound: Cn1ncc2ccc(Nc3ncc(F)c(Nc4ccc5c(c4)NC(=O)C(C)(C)O5)n3)cc21 [Compound 769, N4-(2,2-Dimethyl-3-oxo-4H-benz[1,4]oxazin-6-yl)-5-fluoro-N2-(1-methylindazol-6-yl)-2,4-pyrimidinediamine Benzenesulfonic Acid Salt]
- IC50 [1, 10]: > 10 µM
- IC50 [2, 11]: < 10 µM
- IC50 [2, 12]: < 10 µM

- IC50 [1, 10]: > 10 µM
- IC50 [2, 11]: < 10 µM
- IC50 [2, 12]: < 10 µM
Compound: COCCn1ncc2cc(Nc3ncc(F)c(Nc4ccc(Cl)c(Cl)c4)n3)ccc21 [Compound 771, N4-(3,4-Dichlorophenyl)-5-fluoro-N2-[1-(2-methoxyethyl)indazol-5-yl]-2,4-pyrimidinediamine]

- IC50 [1, 10]: > 10 µM
- IC50 [2, 11]: < 10 µM
- IC50 [2, 12]: < 10 µM
Compound: COCCn1ncc2cc(Nc3ncc(F)c(Nc4ccc(OC)c(Cl)c4)n3)ccc21 [Compound 772, N4-(3-Chloro-4-methoxyphenyl)-5-fluoro-N2-[1-(2-methoxyethyl)indazol-5-yl]-2,4-pyrimidinediamine]

- IC50 [1, 10]: > 10 µM
- IC50 [2, 11]: < 10 µM
- IC50 [2, 12]: < 10 µM
Compound: COCCn1ncc2cc(Nc3ncc(F)c(Nc4ccc5c(c4)NC(=O)C(C)(C)O5)n3)ccc21 [Compound 773, N4-(2,2-Dimethyl-3-oxo-4H-benz[1,4]oxazin-6-yl)-5-fluoro-N2-[1-(2-methoxyethyl)indazol-5-yl]-2,4-pyrimidinediamine]

- IC50 [1, 10]: > 10 µM
- IC50 [2, 11]: < 10 µM
- IC50 [2, 12]: < 10 µM
Compound: COCCn1ncc2cc(Nc3ncc(F)c(Nc4ccc(F)c(OC)c4)n3)ccc21 [Compound 774, 5-Fluoro-N4-(4-fluoro-3-methoxyphenyl)-N2-[1-(2-methoxyethyl)indazol-5-yl]-2,4-pyrimidinediamine]

- IC50 [1, 10]: > 10 µM
- IC50 [2, 11]: < 10 µM
- IC50 [2, 12]: < 10 µM
Compound: COCCn1ncc2ccc(Nc3ncc(F)c(Nc4ccc(Cl)c(Cl)c4)n3)cc21 [Compound 775, N4-(3,4-Dichlorophenyl)-5-fluoro-N2-[1-(2-methoxyethyl)indazol-6-yl]-2,4-pyrimidinediamine]

- IC50 [1, 10]: > 10 µM
- IC50 [2, 11]: < 10 µM
- IC50 [2, 12]: < 10 µM
Compound: COCCn1ncc2ccc(Nc3ncc(F)c(Nc4ccc(OC)c(Cl)c4)n3)cc21 [Compound 776, N4-(3-Chloro-4-methoxyphenyl)-5-fluoro-N2-[1-(2-methoxyethyl)indazol-6-yl]-2,4-pyrimidinediamine]

- IC50 [1, 10]: > 10 µM
- IC50 [2, 11]: < 10 µM
- IC50 [2, 12]: < 10 µM
Compound: COCCn1ncc2ccc(Nc3ncc(F)c(Nc4ccc5c(c4)NC(=O)C(C)(C)O5)n3)cc21 [Compound 777, N4-(2,2-Dimethyl-3-oxo-4H-benz[1,4]oxazin-6-yl)-5-fluoro-N2-[1-(2-methoxyethyl)indazol-6-yl]-2,4-pyrimidinediamine]

- IC50 [1, 10]: > 10 µM
- IC50 [2, 11]: < 10 µM
Compound: COCCn1ncc2ccc(Nc3ncc(F)c(Nc4ccc(F)c(OC)c4)n3)cc21 [Compound 778, 5-Fluoro-N4-(4-fluoro-3-methoxyphenyl)-N2-[1-(2-methoxyethyl)indazol-6-yl]-2,4-pyrimidinediamine]

From US20220073536A1 (Rigel Pharmaceuticals, Inc., priority 2003, published 2022)
